Measurements from US8033977B2, “Methods of enhancing radiation effects with metal nanoparticles” (NanoProbes, Inc., priority 1998, dated 2011).

Columns and labels:
[1] = system: cellular DNA; conditions: after incorporation into cellular DNA in vitro; 22-45% of thymine substituted; cited from earlier work
[2] = system: test animal tumor models; conditions: co-administered with PALA, tetrahydrouridine and 5-fluoro-2′deoxyctidine, fractionated x-ray treatments; cited from earlier work
[3] = system: CD1 mice; assay: In vivo tolerance of tungsten heteropolyanions in mice; conditions: injected into CD1 mice
Method: A column containing carboxymethyl cellulose medium was prepared and charged with tetramethylammonium acetate, then rinsed with deionized water. Silicotungstic acid (H4SiW12O40.30H2O, 10 mg/ml in water) was injected onto the column and ion exchanged to produce the cluster surrounded and charge-shielded by quaternary ammonium ions.
A complex between the quaternary cation, tetramethylammonium was also formed by mixing equimolar amounts of H4SiW12O40.30H2O, 10 mg/ml in water and tetramethylammonium bromide, 100 mg/ml in water. Some white precipitate was formed that was removed by centrifugation at 13 k×g for 10 minutes, then filtering through a molecular filter, Amicon Centricon 30, that only passes molecules less than 30,000 Daltons. […] Dilutions were prepared and injected into CD1 mice. Good tolerance and normal weight gain was found at blood concentrations of approximately 5 mg/ml, whereas the uncomplexed heteropoltungstate was lethal at 1 mg/ml.

## O=c1[nH]c(=O)n([C@H]2C[C@H](O)[C@@H](CO)O2)cc1I [iododeoxyuridine]
[1]
  radiotherapeutic advantage (factor): about 3

## Nc1nc(=O)n([C@H]2C[C@H](O)[C@@H](CO)O2)cc1Cl [5-chloro-2′-deoxycytidine]
[2]
  dose enhancement: threefold

## Silicotungstic acid [uncomplexed heteropoltungstate]
[3]
  lethal blood concentration: 1 mg/mL
